Earlier results on three compounds are cited in patent publication US7265128B2, “3-amino-4-phenylbutanoic acid derivatives as dipeptidyl peptidase inhibitors for the treatment or prevention of diabetes” (Merck & Co., Inc., priority 2003, dated 2007).

One series concerns rats. Conditions: survival doubled from day 7.
In the next series the test system is mouse. As to conditions: cyclophosphamide-induced neutropenia.
The target in a further series is T1, DP-IV (Homo sapiens, UniProt P27487).
T1 construct: GRF is rapidly degraded in plasma to GRF[3-44]
T1 sequence (P27487 whole entry): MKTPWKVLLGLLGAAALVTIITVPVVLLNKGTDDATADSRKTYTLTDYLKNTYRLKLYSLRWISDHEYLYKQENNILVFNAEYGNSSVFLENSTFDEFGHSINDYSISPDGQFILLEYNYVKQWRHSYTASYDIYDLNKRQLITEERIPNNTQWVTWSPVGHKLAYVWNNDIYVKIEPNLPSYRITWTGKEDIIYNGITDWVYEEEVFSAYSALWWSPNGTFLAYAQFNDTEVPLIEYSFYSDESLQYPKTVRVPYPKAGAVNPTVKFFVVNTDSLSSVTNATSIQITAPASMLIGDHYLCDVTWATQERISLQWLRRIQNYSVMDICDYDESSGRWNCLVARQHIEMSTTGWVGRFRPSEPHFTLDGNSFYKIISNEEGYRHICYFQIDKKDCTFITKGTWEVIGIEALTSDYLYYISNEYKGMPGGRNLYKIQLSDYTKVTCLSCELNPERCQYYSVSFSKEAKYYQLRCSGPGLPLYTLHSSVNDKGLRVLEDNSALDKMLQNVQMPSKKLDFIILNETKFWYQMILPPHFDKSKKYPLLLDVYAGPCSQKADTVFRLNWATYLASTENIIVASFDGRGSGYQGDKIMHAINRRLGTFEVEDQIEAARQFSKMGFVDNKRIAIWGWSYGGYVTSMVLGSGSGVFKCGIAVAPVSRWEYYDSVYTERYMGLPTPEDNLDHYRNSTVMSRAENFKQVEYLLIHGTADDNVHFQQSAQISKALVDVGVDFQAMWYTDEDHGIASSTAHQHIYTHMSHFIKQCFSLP

Consider `CC(C)N1CCC(c2ccccc2)(c2ccccc2)CC1` [Prodipine, Pro-Pro-diphenyl-phosphonate], for which the cardiac allograft survival in the series on rats is on record as 14 day.

Regarding `CC(C)[C@H](N)C(=O)N1CCC[C@H]1B(O)O` [Val-Boro-Pro], the hematopoiesis result in the series on mouse is given as “stimulated hematopoiesis”.

For the compound diprotin A, the “degradation of GRF in plasma to GRF[3-44]” value on DP-IV is listed as “prevented”.
